Laboratory results taken from ChEMBL document CHEMBL1137310, “Stereoselective chemoenzymatic synthesis of the four stereoisomers of l-2-(2-carboxycyclobutyl)glycine and pharmacological characterization at human excitatory amino acid transporter subtypes 1, 2, and 3” (J Med Chem, 2006).
pKi: −log10 of the molar value.

Columns and labels:
Format in all cases: functional, cell-based
[1] = molecular target: Excitatory amino acid transporter 2 (Homo sapiens, UniProt P43004); assay: Inhibition of human EAAT2 expressed in HEK293 cells by FLIPR membrane potential assay
Chain of Excitatory amino acid transporter 2 (P43004 whole entry): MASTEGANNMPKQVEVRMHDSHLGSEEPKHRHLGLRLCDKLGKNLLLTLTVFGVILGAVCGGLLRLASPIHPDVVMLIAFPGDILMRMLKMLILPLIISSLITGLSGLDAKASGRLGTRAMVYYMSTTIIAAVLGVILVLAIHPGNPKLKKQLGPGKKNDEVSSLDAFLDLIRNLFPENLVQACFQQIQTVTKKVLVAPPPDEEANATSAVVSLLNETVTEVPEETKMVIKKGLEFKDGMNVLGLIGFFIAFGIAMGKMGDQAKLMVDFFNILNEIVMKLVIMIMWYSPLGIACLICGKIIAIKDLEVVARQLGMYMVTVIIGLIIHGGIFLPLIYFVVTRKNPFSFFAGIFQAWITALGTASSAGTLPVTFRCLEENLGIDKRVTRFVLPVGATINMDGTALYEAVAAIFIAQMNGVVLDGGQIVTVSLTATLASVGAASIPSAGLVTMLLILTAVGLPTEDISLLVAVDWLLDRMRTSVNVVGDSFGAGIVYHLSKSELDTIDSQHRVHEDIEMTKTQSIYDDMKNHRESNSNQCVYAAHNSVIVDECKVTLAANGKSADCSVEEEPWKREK

[2] = molecular target: Excitatory amino acid transporter 1 (Homo sapiens, UniProt P43003); assay: Inhibition of human EAAT1 expressed in HEK293 cells by FLIPR membrane potential assay
Chain of Excitatory amino acid transporter 1 (P43003 whole entry): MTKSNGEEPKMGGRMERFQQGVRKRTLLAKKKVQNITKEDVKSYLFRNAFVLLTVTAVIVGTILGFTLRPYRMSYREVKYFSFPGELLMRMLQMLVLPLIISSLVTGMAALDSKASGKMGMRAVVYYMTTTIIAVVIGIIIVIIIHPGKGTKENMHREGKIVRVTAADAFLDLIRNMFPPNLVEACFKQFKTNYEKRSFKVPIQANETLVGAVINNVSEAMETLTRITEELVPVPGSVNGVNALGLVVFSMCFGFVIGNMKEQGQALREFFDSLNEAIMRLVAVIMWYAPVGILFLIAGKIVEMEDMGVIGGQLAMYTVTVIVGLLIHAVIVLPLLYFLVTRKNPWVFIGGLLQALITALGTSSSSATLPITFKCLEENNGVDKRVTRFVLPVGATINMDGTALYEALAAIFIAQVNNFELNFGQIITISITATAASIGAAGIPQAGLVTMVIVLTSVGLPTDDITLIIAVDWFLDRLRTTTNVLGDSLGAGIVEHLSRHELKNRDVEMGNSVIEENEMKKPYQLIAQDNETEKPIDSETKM

[3] = molecular target: T1, Excitatory amino acid transporter 3 (Homo sapiens, UniProt P43005); assay: Inhibition of human EAAT3 expressed in HEK293 cells by FLIPR membrane potential assay
T1 sequence (P43005 whole entry): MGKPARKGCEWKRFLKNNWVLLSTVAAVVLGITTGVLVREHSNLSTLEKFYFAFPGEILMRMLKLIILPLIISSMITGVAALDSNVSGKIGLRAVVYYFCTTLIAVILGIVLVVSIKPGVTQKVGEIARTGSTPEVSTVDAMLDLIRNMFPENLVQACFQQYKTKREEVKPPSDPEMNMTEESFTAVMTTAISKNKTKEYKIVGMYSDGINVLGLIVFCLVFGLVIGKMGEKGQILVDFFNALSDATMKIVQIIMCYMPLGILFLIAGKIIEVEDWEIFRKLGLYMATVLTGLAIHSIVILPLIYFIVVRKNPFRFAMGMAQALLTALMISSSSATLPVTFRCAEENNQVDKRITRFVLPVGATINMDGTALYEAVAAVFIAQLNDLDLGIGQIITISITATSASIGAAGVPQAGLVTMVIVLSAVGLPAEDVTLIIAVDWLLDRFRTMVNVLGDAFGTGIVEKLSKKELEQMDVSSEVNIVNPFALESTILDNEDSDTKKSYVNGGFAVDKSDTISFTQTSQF

| pKi [1] | pKi [2] | pKi [3] | Structure (SMILES) |
| --- | --- | --- | --- |
| 5.18 | 3.70 | 5.00 | N[C@H](C(=O)O)[C@@H]1CC[C@@H]1C(=O)O |
| 4.66 |  | 4.31 | N[C@H](C(=O)O)[C@@H]1CC[C@H]1C(=O)O |
